Results on 3 substances are retold here after article PMC13267291, “In vivo functional profiling and structural characterization of the human GLP1R A316T variant” (Science Advances, 2026).

The subject of test [1] is SNAP/FLAG-hGLP1R^A316T versus ^WT. Put plainly: Nb37 bystander NanoBiT assay (plasma membrane and endosomal GLP-1R activity). In kind it is cell-based, human. The following applies: log(Emax/EC50), Fig. 8B,C; for Agonist-induced endosomal A316T activity versus WT: n = 4 (GLP-1), n = 3 (Ex-4). The procedure:
Nb37 bystander NanoBiT assays
INS-1 832/3 Glp1r-/- cells were seeded in 6-well plates and co-transfected with the following plasmids:
200 ng pSNAP/FLAG-hGLP1RWT or A316T, 500 ng Gαs (human, short isoform), 500 ng Gβ1 (human), 500 ng Gγ2 (human), 100 ng RIC8B (human, isoform 2), and either 100 ng LgBiT-CAAX (KRAS CAAX motif N-terminally fused with LgBiT) or 500 ng Endofin-LgBiT (Endofin FYVE domain C-terminally fused with LgBiT), plus 100 ng (plasma membrane assay) or 500 ng (endosomal assay) SmBiT-Nb37 [Nb37 cDNA synthesised by GenScript C- terminally fused to SmBiT with a 15 amino acid flexible linker (123) ] and adjusted for total DNA with pcDNA3.1 for the LgBiT-CAAX transfection. 24 hours after transfection, cells were exposed to NanoGlo Live Cell Reagent (Promega) with furimazine (1:20 dilution) and bioluminescence read in a Flexstation 3 plate reader for 8 min before and 30 min after stimulation by […]
AUCs were calculated for each agonist concentration and fitted to log(agonist) versus response four-parameter curves using GraphPad Prism 10.1.2, with logEC50 (potency) and Emax (efficacy) calculated for each replicate dose response curve. Baseline endosomal over plasma membrane bioluminescence ratios were also calculated.
GLP- 1R conformational ECD opening time resolved-fluorescence resonance energy transfer (TR- […]
INS-1 832/3 Glp1r-/- SNAP/FLAG-hGLP1RWT or A316T cells were labelled with SNAP-Lumi4- Tb (Revvity; 40 nM, 60 min at 37°C in complete medium). After washing to remove unbound probe, cells were resuspended in HBSS ± 100 nM plasma membrane dye NR12A (a gift from Prof Andrey Klymchenko, University of Strasbourg, France) for 5 min before washing again. Labelled cells were transferred to 96-well half-area white plates and baseline TR-FRET signal from Lumi-4Tb (donor) and NR12A (acceptor) recorded for 5 min at 37°C using a Flexstation 3 plate reader with the following settings: λex = 335 nm, λem = 490 and 590 n m, delay 50 µs , integration time 300 µs. GLP-1 was then added at serial doses, and […]

Test [2] concerns hGLP1R^A316T/A316T versus hGLP1R^+/+ mice. Put plainly: IPGTT acutely and 6 hours after GLP-1RA, chow-fed homozygous mice. In kind it is in vivo, mouse. The following applies: chow diet; for Agonist-specific glycemic response (ΔAUC), 6-hour time point, A316T/A316T versus +/+: IPGTT 6 hours postadministration, n = 9; for Agonist-specific glycemic response (ΔAUC), 6-hour time point, A316T/A316T versus +/+ / Agonist-specific glycemic response (ΔAUC, agonist- minus vehicle-treated AUC), acute, A316T/A316T versus +/+: Fig. 1J,K; for Agonist-specific glycemic response (ΔAUC, agonist- minus vehicle-treated AUC), acute, A316T/A316T versus +/+: acute IPGTT, n = 9 per genotype. The method, then: To examine acute and prolonged glycemic responses to GLP-1RAs, animals were fasted for 2 hours, starting at 8 a.m. on the morning of the experiments, before IPGTTs. GLP-1RAs were then coadministered at the indicated concentrations with 20% (w/v) D-glucose via intraperitoneal injection at weight-adjusted volumes. Baseline glucose readings were taken via tail venipuncture, and subsequent readings were taken at various time points after glucose ± GLP-1RA administration as for the OGTTs (0-hour acute IPGTTs). For GLP-1RAs with shorter half-lives (exendin-4 and exendin-F1), IPGTTs were repeated 6 hours after the start of the initial IPGTT, with continued fasting. For the extended half-life GLP-1RA semaglutide, IPGTTs were performed 24 and 72 hours after GLP-1RA administration, with access to food restored at the end of each IPGTT. The in vivo IPGTT studies were performed with a crossover design, with each mouse receiving vehicle and each GLP-1RA treatment with washout periods of at least 1 week between the different GLP-1RA treatments.

Test [3] has the same test system. The test is described as follows: IPGTT after GLP-1RA, HFHS-fed homozygous mice. It is filed as in vivo, mouse. The following applies: HFHS diet; 2 nmol/kg ip; acute and 6 hours; n = 9; Fig. 2G-J. The method, then:
All animal procedures were approved by the British Home Office under the UK animals (Scientific Procedures) Act 1986 (Project License number PP7151519 to A. Martinez-Sanchez, Imperial College London, UK) and from the local ethical committee (Animal Welfare and Ethics Review Board) at the Central Biological Services unit of Imperial College London. Animals were housed in groups of up to four adult mice in individually ventilated cages under controlled conditions at 21° to 23°C with 12-hour:12-hour light-to-dark cycles (lights on at 07:00). Ad libitum access to water and feed was provided unless otherwise stated. Lean mice were fed a standard chow diet [RM1 (E); Special Diet Services]. For HFHS diet studies, animals were put on a 58 kcal % fat and sucrose diet (D12331, Research Diets Inc.) ad libitum for 10 to 14 weeks before experiments.
To examine acute and prolonged glycemic responses to GLP-1RAs, animals were fasted for 2 hours, starting at 8 a.m. on the morning of the experiments, before IPGTTs. GLP-1RAs were then coadministered at the indicated concentrations with 20% (w/v) D-glucose via intraperitoneal injection at weight-adjusted volumes. Baseline glucose readings were taken via tail venipuncture, and subsequent readings were taken at various time points after glucose ± GLP-1RA administration as for the OGTTs (0-hour acute IPGTTs). […]

Test [4] relates to SNAP/FLAG-hGLP1R^A316T versus ^WT. The test is described as follows: Insulin secretion in EndoC-βH3 GLP1R^-/--enriched cells. It is filed as cell-based, human. The settings on record: 15 mM glucose + 100 nM, 60 min; n = 4; Fig. 6C,D. The procedure: Purified mouse islets used for insulin secretion assays were treated in 24-well nonadherent plates. Eight islets were used per replicate with three technical replicates per condition. For acute studies, islets were preincubated for 1 hour in KRBH buffer containing 0.1% (w/v) bovine serum albumin (BSA) (10775835001, Roche) and 3 mM glucose before incubation with 11 mM glucose ± 100 nM GLP-1RAs or the GLP-1R antagonist exendin-9 in KRBH buffer in a shaking 37°C water bath (80 rpm) for 1 hour. For overnight studies, preincubation was carried out in RPMI 1640 medium containing FBS, P/S, and 3 mM glucose, followed by treatment with medium supplemented with 11 mM glucose ± GLP-1RAs for 16 hours. […] Insulin secretion assays with the human EndoC-βH3 cell line were performed following 3 weeks of treatment with 4-hydroxytamoxifen as above, followed by transduction with pAV-SNAP/FLAG-hGLP1R^WT or ^A316T adenoviruses, with insulin secretion assessed as previously described ([54]), with the following modifications: After preincubation with 0.5 mM glucose KRBH buffer, cells were stimulated with 15 mM glucose ± exendin-4 for 60 min. Total and secreted insulin samples from islets and cells were stored at −20°C until quantification using an Insulin Ultra-Sensitive HTRF kit (#62IN2PEG, Revvity) in a PHERAstar plate reader (BMG Labtech), according to the manufacturer’s instructions.

Consider GLP-1(7-36)NH2, for which, in test [1], the “Plasma membrane activity, A316T versus WT” value is “without changes” and the “Agonist-induced endosomal A316T activity versus WT” value is reported as “tendency to be increased”.
Turning to exendin-F1, in test [2] (2 nmol/kg ip), the “Agonist-specific glycemic response (ΔAUC), 6-hour time point, A316T/A316T versus +/+” value was “absent” and the “Agonist-specific glycemic response (ΔAUC, agonist- minus vehicle-treated AUC), acute, A316T/A316T versus +/+” value is listed as “similarly reduced”. In addition, the “IPGTT glucose responses (AUC), A316T/A316T versus +/+” value in test [2] (2 nmol/kg ip, acutely and 6 hours postagonist, Fig. 1F-I) is “without reaching statistical significance”. The “Desensitization at the 6-hour IPGTT versus exendin-4” value in test [2] (both mouse genotypes) is on record as “reduced desensitization”. Besides, the “IPGTT glucose responses, A316T/A316T versus +/+” value in test [3] is “slightly more pronounced desensitization”.
In the case of exendin-4, in test [2] (2 nmol/kg ip), the “Agonist-specific glycemic response (ΔAUC), 6-hour time point, A316T/A316T versus +/+” value is reported as “paradoxical increase in blood glucose levels compared to vehicle” and the “Agonist-specific glycemic response (ΔAUC, agonist- minus vehicle-treated AUC), acute, A316T/A316T versus +/+” value is “significantly reduced”. For the same substance, in test [3], the “IPGTT glucose responses, A316T/A316T versus +/+” value is recorded as “slightly more pronounced desensitization”. Besides, in test [4], the “Agonist-stimulated insulin secretory fold increases, A316T versus WT” value is “significantly reduced”. In test [1], the “Plasma membrane activity, A316T versus WT” value is given as “without changes” and the “Agonist-induced endosomal A316T activity versus WT” value was “significantly reduced”.
